Reference: patent publication US20160045446A1, “ORAL ADMINISTRATION PREPARATION WITH MASKED BITTERNESS OF SILODOSIN” (KISSEI PHARMACEUTICAL CO., LTD., priority 2013, published 2016)

Assay: Compatibility test of silodosin with polymer-based materials
Type: physicochemical
Settings: silodosin:material 1:1 by mass, 40° C., 75% relative humidity, 4 weeks, visual examination
Description: Silodosin and a variety of polymer-based materials were mixed in the mass ratio of 1:1. The mixtures were stored at 40° C. under 75% relative humidity for 4 weeks, and the changes on blending, i.e. incompatibility, were checked. Degradation products were quantified by a liquid chromatography method and a degree of discoloration was checked by visual examination.
Samples equivalent to 20 mg of silodosin were weighed, and test solutions were prepared and analyzed by the liquid chromatography method. Each peak area was measured by an automatic integration method and a content rate of degradation product (KMD-3241) (%) was calculated by an area percentage method.
Detector: Ultraviolet Absorption Photometer (Wavelength: 225 nm)

Structure (SMILES): C[C@H](Cc1cc2c(c(C(N)=O)c1)N(CCCO)CC2)NCCOc1ccccc1OCC(F)(F)F [Silodosin (reference), Silodosin]
- Color change (fading): −
